Source: publication PMC8480901 (PLoS ONE, 2021)
Where “and” joins values, the source holds several entries; their conditions need not be identical. Identical values can stand only once. Entries after “also recorded” stand apart in the source; their conditions may differ.

Test system: LPS-induced lung neutrophilia
Test: LPS-induced lung neutrophilia: total and neutrophil cell counts in BALF
Format: in vivo, BALB/c mice
Details: for total cell and neutrophil recruitment to the lungs (measured in BALF): 10, 30, and 100 mg/kg SC 30 min before intranasal LPS, 4 hours postchallenge, vs vehicle control; for Neutrophils in BALF: % reduction / Total cells/white blood cells in BALF: % reduction / Neutrophils in BALF, Mean / Total cells/white blood cells in BALF, Mean / Neutrophils in BALF, individual mice / Total cells/white blood cells in BALF, individual mice: LPS; for Neutrophils in BALF, Mean / Total cells/white blood cells in BALF, Mean / Neutrophils in BALF, individual mice / Total cells/white blood cells in BALF, individual mice: BALF 4 h after LPS
Experimental: Six-week-old male BALB/c mice (Charles River, Calco, Italy) were singly housed in a temperature-controlled (22°C±2°C) environment with a 12:12-hour light:dark cycle and free access to food and water. Mice were given ≥7 days for acclimation before all procedures. […] One day before the start of experimental procedures, all animals were randomized into 6 groups (n = 8/group). Animal group assignment was not blinded.
LPS lyophilized powder (2 mg; Sigma-Aldrich Chemie GmbH, Munich, Germany) from Escherichia coli (O111:B4) was dissolved in 10 mL cold saline (0.9%; Pliva, Zagreb, Croatia), vortexed, and further diluted by mixing 2 mL of this solution with 2 mL saline to reach a final concentration of 5 μg LPS/50 μL saline. […] Ketamine hydrochloride (Narketan 10) was acquired from Vetoquinol (Bern, Switzerland), and xylazine hydrochloride (Rompun, 2%) was acquired from Bayer (Leverkusen, Germany).
To induce pulmonary neutrophilia, mice in the control group received intranasal (IN) 50 μL saline, and all other animals received 5 μg LPS/50 μL saline IN per mouse.
Tracheostomy was performed, and a Buster cat catheter (1.0 × 130 mm; Kruuse, Langeskov, Denmark), shortened to 3 cm, was clamped into the trachea. The lungs were washed 3 times with cold phosphate-buffered saline (PBS; Sigma-Aldrich Chemie GmbH) in a total volume of 1 mL (0.4, 0.3, and 0.3 mL). The collected BALF samples were centrifuged (1303×g, 5 min, 4°C), and resulting cell pellets were each resuspended in 600 μL PBS. Samples were immediately analyzed for total and differential neutrophil cell counts via automated hematology analyzer (XT-2000iV; Sysmex, Kobe, Japan).
Differences between treated versus vehicle groups were determined using the Mann-Whitney test and were considered statistically significant when P<0.05. Outliers in the analysis of cytokine and chemokine concentrations were identified using the Grubbs test. No criteria were set for inclusion/exclusion of animals during the experiment or data points during the analysis.

[1] = Experiment 1, 10 mg/kg SC, listed as Azi, 10 mg/kg
[2] = Experiment 1, 30 mg/kg SC, listed as Azi, 30 mg/kg
[3] = Experiment 1, 100 mg/kg SC, listed as Azi, 100 mg/kg
[4] = Experiment 1, 1 mg/kg (IP), 1 mg/kg
[5] = Experiment 2, 0.5 mg/kg (PO), 0.5 mg/kg
[6] = Experiment 1, 10 mg/kg SC, listed as Lef, 10 mg/kg
[7] = Experiment 1, 30 mg/kg SC, listed as Lef, 30 mg/kg
[8] = Experiment 1, 100 mg/kg SC, listed as Lef, 100 mg/kg
[9] = Experiment 2, 35 mg/kg SC, listed as Lef, 35 mg/kg
[10] = Experiment 2, 70 mg/kg SC, listed as Lef, 70 mg/kg
[11] = Experiment 2, 140 mg/kg SC, listed as Lef, 140 mg/kg

CC[C@H]1OC(=O)[C@H](C)[C@@H](O[C@H]2C[C@@](C)(OC)[C@@H](O)[C@H](C)O2)[C@H](C)[C@@H](O[C@@H]2O[C@H](C)C[C@H](N(C)C)[C@H]2O)[C@](C)(O)C[C@@H](C)CN(C)[C@H](C)[C@@H](O)[C@]1(C)O [Azithromycin]
total cell and neutrophil recruitment to the lungs (measured in BALF): significant dose-dependent reductions | Neutrophils in BALF: % reduction (Experiment 1, 10 mg/kg SC): 42% | Total cells/white blood cells in BALF: % reduction (Experiment 1, 10 mg/kg SC): 68% | Neutrophils in BALF, Mean (Experiment 1, 10 mg/kg SC): 3e+08 L⁻¹ | Total cells/white blood cells in BALF, Mean (Experiment 1, 10 mg/kg SC): 4.4e+08 L⁻¹ | Neutrophils in BALF, individual mice [1]: 3.8e+08 L⁻¹ and 3.6e+08 L⁻¹ and 3e+08 L⁻¹ and 2.9e+08 L⁻¹ and 2.7e+08 L⁻¹ and 8e+07 L⁻¹ and 3.4e+08 L⁻¹ | Total cells/white blood cells in BALF, individual mice [1]: 1.5e+08 L⁻¹ and 4.9e+08 L⁻¹ and 5.5e+08 L⁻¹ and 6.2e+08 L⁻¹ and 3.6e+08 L⁻¹ and 5.1e+08 L⁻¹ and 3.8e+08 L⁻¹ | Neutrophils in BALF: % reduction (Experiment 1, 30 mg/kg SC): 45% | Total cells/white blood cells in BALF: % reduction (Experiment 1, 30 mg/kg SC): 71% | Neutrophils in BALF, Mean (Experiment 1, 30 mg/kg SC): 2.9e+08 L⁻¹ | Total cells/white blood cells in BALF, Mean (Experiment 1, 30 mg/kg SC): 4.4e+08 L⁻¹ | Neutrophils in BALF, individual mice [2]: 2.5e+08 L⁻¹ and 5.9e+08 L⁻¹ and 2.3e+08 L⁻¹ and 2.1e+08 L⁻¹ and 4.6e+08 L⁻¹ and 1.7e+08 L⁻¹ and 2e+08 L⁻¹ | Total cells/white blood cells in BALF, individual mice [2]: 2.5e+08 L⁻¹ and 3.1e+08 L⁻¹ and 4.1e+08 L⁻¹ and 8.2e+08 L⁻¹ and 4.6e+08 L⁻¹ and 3.8e+08 L⁻¹ and 5.6e+08 L⁻¹ | Neutrophils in BALF: % reduction (Experiment 1, 100 mg/kg SC): 57% | Total cells/white blood cells in BALF: % reduction (Experiment 1, 100 mg/kg SC): 95% | Neutrophils in BALF, Mean (Experiment 1, 100 mg/kg SC): 2.3e+08 L⁻¹ | Total cells/white blood cells in BALF, Mean (Experiment 1, 100 mg/kg SC): 3.7e+08 L⁻¹ | Neutrophils in BALF, individual mice [3]: 3.6e+08 L⁻¹ and 2.2e+08 L⁻¹ and 1.7e+08 L⁻¹ and 1.3e+08 L⁻¹ and 3.4e+08 L⁻¹ and 2.5e+08 L⁻¹ and 1.5e+08 L⁻¹ and 1.9e+08 L⁻¹ | Total cells/white blood cells in BALF, individual mice [3]: 2.8e+08 L⁻¹ and 3.1e+08 L⁻¹ and 4.9e+08 L⁻¹ and 3.6e+08 L⁻¹ and 4.4e+08 L⁻¹ and 2.2e+08 L⁻¹ and 5.2e+08 L⁻¹ and 3.3e+08 L⁻¹

C[C@@H]1C[C@H]2[C@@H]3CCC4=CC(=O)C=C[C@]4(C)[C@@]3(F)[C@@H](O)C[C@]2(C)[C@@]1(O)C(=O)CO [Dexamethasone]
Neutrophils in BALF: % reduction (Experiment 1, 1 mg/kg (IP)): 47% | Total cells/white blood cells in BALF: % reduction (Experiment 1, 1 mg/kg (IP)): 75% | Neutrophils in BALF, Mean (Experiment 1, 1 mg/kg (IP)): 2.8e+08 L⁻¹ | Total cells/white blood cells in BALF, Mean (Experiment 1, 1 mg/kg (IP)): 4.3e+08 L⁻¹ | Neutrophils in BALF, individual mice [4]: 2.5e+08 L⁻¹ and 1.2e+08 L⁻¹ and 2.9e+08 L⁻¹ and 2.6e+08 L⁻¹ and 3e+08 L⁻¹ and 3.9e+08 L⁻¹ and 3.1e+08 L⁻¹ | Total cells/white blood cells in BALF, individual mice [4]: 3.9e+08 L⁻¹ and 3.8e+08 L⁻¹ and 4.1e+08 L⁻¹ and 2.3e+08 L⁻¹ and 4.5e+08 L⁻¹ and 5.2e+08 L⁻¹ and 6.3e+08 L⁻¹ | Neutrophils in BALF: % reduction (Experiment 2, 0.5 mg/kg (PO)): 61% | Total cells/white blood cells in BALF: % reduction (Experiment 2, 0.5 mg/kg (PO)): 78% | Neutrophils in BALF, Mean (Experiment 2, 0.5 mg/kg (PO)): 2.4e+08 L⁻¹ | Total cells/white blood cells in BALF, Mean (Experiment 2, 0.5 mg/kg (PO)): 5e+08 L⁻¹ | Neutrophils in BALF, individual mice [5]: 2.5e+08 L⁻¹ and 2e+08 L⁻¹ and 3.4e+08 L⁻¹ and 1.9e+08 L⁻¹ and 2.3e+08 L⁻¹ and 3.1e+08 L⁻¹ and 1.7e+08 L⁻¹ | Total cells/white blood cells in BALF, individual mice [5]: 7e+08 L⁻¹ and 2.9e+08 L⁻¹ and 5.5e+08 L⁻¹ and 4.4e+08 L⁻¹ and 7.7e+08 L⁻¹ and 3.6e+08 L⁻¹

C=C[C@]1(C)C[C@@H](OC(=O)CS[C@@H]2CC[C@@H](N)C[C@H]2O)[C@]2(C)[C@H](C)CC[C@]3(CCC(=O)[C@H]32)[C@@H](C)[C@@H]1O [Lefamulin]
total cell and neutrophil recruitment to the lungs (measured in BALF): dose-dependent reduction; also recorded: almost complete reduction | Neutrophils in BALF: % reduction (Experiment 1, 10 mg/kg SC): 37% | Total cells/white blood cells in BALF: % reduction (Experiment 1, 10 mg/kg SC): 50% | Neutrophils in BALF, Mean (Experiment 1, 10 mg/kg SC): 3.3e+08 L⁻¹ | Total cells/white blood cells in BALF, Mean (Experiment 1, 10 mg/kg SC): 5e+08 L⁻¹ | Neutrophils in BALF, individual mice [6]: 4.7e+08 L⁻¹ and 2.2e+08 L⁻¹ and 1.9e+08 L⁻¹ and 3.7e+08 L⁻¹ and 3.1e+08 L⁻¹ and 1e+08 L⁻¹ and 4.5e+08 L⁻¹ and 4.9e+08 L⁻¹ | Total cells/white blood cells in BALF, individual mice [6]: 6.6e+08 L⁻¹ and 5.9e+08 L⁻¹ and 6.1e+08 L⁻¹ and 3e+08 L⁻¹ and 5.1e+08 L⁻¹ and 6.3e+08 L⁻¹ and 5e+08 L⁻¹ and 1.7e+08 L⁻¹ | Neutrophils in BALF: % reduction (Experiment 1, 30 mg/kg SC): 59% | Total cells/white blood cells in BALF: % reduction (Experiment 1, 30 mg/kg SC): 78% | Neutrophils in BALF, Mean (Experiment 1, 30 mg/kg SC): 2.2e+08 L⁻¹ | Total cells/white blood cells in BALF, Mean (Experiment 1, 30 mg/kg SC): 4.2e+08 L⁻¹ | Neutrophils in BALF, individual mice [7]: 2.1e+08 L⁻¹ and 3.8e+08 L⁻¹ and 1.2e+08 L⁻¹ and 2.5e+08 L⁻¹ and 1.7e+08 L⁻¹ and 2.3e+08 L⁻¹ and 1.6e+08 L⁻¹ | Total cells/white blood cells in BALF, individual mice [7]: 2.7e+08 L⁻¹ and 3.7e+08 L⁻¹ and 3.5e+08 L⁻¹ and 6.6e+08 L⁻¹ and 2.6e+08 L⁻¹ and 3.9e+08 L⁻¹ and 3.8e+08 L⁻¹ | Neutrophils in BALF: % reduction (Experiment 1, 100 mg/kg SC): 70% | Total cells/white blood cells in BALF: % reduction (Experiment 1, 100 mg/kg SC): 100% | Neutrophils in BALF, Mean (Experiment 1, 100 mg/kg SC): 1.6e+08 L⁻¹ | Total cells/white blood cells in BALF, Mean (Experiment 1, 100 mg/kg SC): 3.5e+08 L⁻¹ | Neutrophils in BALF, individual mice [8]: 1.4e+08 L⁻¹ and 1.8e+08 L⁻¹ and 1.2e+08 L⁻¹ and 1.3e+08 L⁻¹ and 2.8e+08 L⁻¹ and 1.7e+08 L⁻¹ | Total cells/white blood cells in BALF, individual mice [8]: 3.3e+08 L⁻¹ and 2.4e+08 L⁻¹ and 3.1e+08 L⁻¹ and 3.4e+08 L⁻¹ and 2.3e+08 L⁻¹ and 3.9e+08 L⁻¹ and 6.6e+08 L⁻¹ | Neutrophils in BALF: % reduction (Experiment 2, 35 mg/kg SC): 64% | Total cells/white blood cells in BALF: % reduction (Experiment 2, 35 mg/kg SC): 69% | Neutrophils in BALF, Mean (Experiment 2, 35 mg/kg SC): 2.2e+08 L⁻¹ | Total cells/white blood cells in BALF, Mean (Experiment 2, 35 mg/kg SC): 5.5e+08 L⁻¹ | Neutrophils in BALF, individual mice [9]: 2e+08 L⁻¹ and 1.6e+08 L⁻¹ and 2.4e+08 L⁻¹ and 2.2e+08 L⁻¹ and 3.4e+08 L⁻¹ and 1.9e+08 L⁻¹ and 3.1e+08 L⁻¹ and 1.2e+08 L⁻¹ | Total cells/white blood cells in BALF, individual mice [9]: 9.1e+08 L⁻¹ and 2e+08 L⁻¹ and 7e+08 L⁻¹ and 4.4e+08 L⁻¹ and 4.6e+08 L⁻¹ and 3.7e+08 L⁻¹ and 7.3e+08 L⁻¹ and 5.5e+08 L⁻¹ | Neutrophils in BALF: % reduction (Experiment 2, 70 mg/kg SC): 77% | Total cells/white blood cells in BALF: % reduction (Experiment 2, 70 mg/kg SC): 91% | Neutrophils in BALF, Mean (Experiment 2, 70 mg/kg SC): 1.5e+08 L⁻¹ | Total cells/white blood cells in BALF, Mean (Experiment 2, 70 mg/kg SC): 4.3e+08 L⁻¹ | Neutrophils in BALF, individual mice [10]: 1.8e+08 L⁻¹ and 1.7e+08 L⁻¹ and 1.1e+08 L⁻¹ and 1e+08 L⁻¹ and 2.1e+08 L⁻¹ and 1.2e+08 L⁻¹ and 9e+07 L⁻¹ | Total cells/white blood cells in BALF, individual mice [10]: 4.6e+08 L⁻¹ and 2.1e+08 L⁻¹ and 4.3e+08 L⁻¹ and 4.4e+08 L⁻¹ and 3.3e+08 L⁻¹ and 3e+08 L⁻¹ and 5.8e+08 L⁻¹ and 6.7e+08 L⁻¹ | Neutrophils in BALF: % reduction (Experiment 2, 140 mg/kg SC): 77% | Total cells/white blood cells in BALF: % reduction (Experiment 2, 140 mg/kg SC): 107% | Neutrophils in BALF, Mean (Experiment 2, 140 mg/kg SC): 1.5e+08 L⁻¹ | Total cells/white blood cells in BALF, Mean (Experiment 2, 140 mg/kg SC): 3.4e+08 L⁻¹ | Neutrophils in BALF, individual mice [11]: 1.6e+08 L⁻¹ and 1.4e+08 L⁻¹ and 1.2e+08 L⁻¹ and 1.7e+08 L⁻¹ and 9e+07 L⁻¹ and 2e+08 L⁻¹ | Total cells/white blood cells in BALF, individual mice [11]: 4.6e+08 L⁻¹ and 3.9e+08 L⁻¹ and 2.6e+08 L⁻¹ and 2.9e+08 L⁻¹ and 3.6e+08 L⁻¹ and 3.3e+08 L⁻¹ and 4.4e+08 L⁻¹ and 2e+08 L⁻¹
